The record followed here is ChEMBL document CHEMBL4196037, “Precise structures of fucosylated glycosaminoglycan and its oligosaccharides as novel intrinsic factor Xase inhibitors” (Eur J Med Chem, 2018).

By IC50 is commonly meant the concentration at which inhibition is half-maximal. A low value points to higher potency. By inhibition is commonly meant the relative decrease from the control value, in per cent. Read a low inhibition as a weak effect.

Test [1] relates to Plasma. Nature of the test: Anticoagulant activity in human plasma assessed as concentration required for increase in clotting time after 2 mins by aPTT assay. Format: functional.
Test [2] relates to Plasma. Nature of the test: Anticoagulant activity in human plasma assessed as concentration required for increase in clotting time after 2 mins by PT assay. Format: functional.
Test [3] has as its system Plasma. The test is described as follows: Anticoagulant activity in human plasma assessed as concentration required for increase in clotting time after 2 mins by TT assay. It counts as functional.
In test [4] the target is Coagulation factor IX/VIII (Homo sapiens, UniProt P00451+P00740). The test is described as follows: Inhibition of human intrinsic factor tenase using factor-10 as substrate preincubated for 2 mins followed by substrate addition for 1 min measured every 30 secs for 5 mins by chromogenic substrate S10a-11 based assay. Format: protein-complex assay.
Test [5] deals with Prothrombin (Homo sapiens) (UniProt P00734). Nature of the test: Inhibition of antithrombin-dependant factor 2a (unknown origin) activity at 2000 ng/ml preincubated for 2 mins followed by chromogenic substrate CS-01 addition measured every 30 secs for 5 mins relative to control.
For test [6], the target named is Coagulation factor X (Bos taurus) (UniProt P00743). The test is described as follows: Inhibition of antithrombin-dependant bovine factor 10a activity at 2000 ng/ml preincubated for 1 mins followed by chromogenic substrate S10a-11 addition measured every 30 secs for 5 mins relative to control.

Molecules are shown by their SMILES. A value given as a limit tells only on which side of the number the result lay.

Sequence of Coagulation factor IX/VIII (P00451 20-759 limits assumed): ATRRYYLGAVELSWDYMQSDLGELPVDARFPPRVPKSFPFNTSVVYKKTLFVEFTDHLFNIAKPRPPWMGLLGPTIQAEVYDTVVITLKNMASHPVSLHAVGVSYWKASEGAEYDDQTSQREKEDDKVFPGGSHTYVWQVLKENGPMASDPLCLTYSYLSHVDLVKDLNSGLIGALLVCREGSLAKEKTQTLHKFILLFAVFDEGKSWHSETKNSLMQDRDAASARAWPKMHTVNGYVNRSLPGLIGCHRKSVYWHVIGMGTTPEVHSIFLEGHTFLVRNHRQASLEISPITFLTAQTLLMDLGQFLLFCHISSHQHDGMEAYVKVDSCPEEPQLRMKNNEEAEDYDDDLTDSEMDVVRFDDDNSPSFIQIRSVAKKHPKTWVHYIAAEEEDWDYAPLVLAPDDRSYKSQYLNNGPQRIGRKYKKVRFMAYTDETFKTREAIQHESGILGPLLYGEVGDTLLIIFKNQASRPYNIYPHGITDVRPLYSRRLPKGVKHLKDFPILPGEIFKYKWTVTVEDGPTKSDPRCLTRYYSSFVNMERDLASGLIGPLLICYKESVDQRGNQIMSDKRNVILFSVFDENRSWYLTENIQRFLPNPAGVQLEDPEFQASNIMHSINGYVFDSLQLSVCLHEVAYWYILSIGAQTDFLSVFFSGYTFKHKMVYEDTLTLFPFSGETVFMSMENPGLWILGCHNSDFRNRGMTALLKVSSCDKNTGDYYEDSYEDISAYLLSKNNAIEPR
Sequence of Coagulation factor IX/VIII (P00451 1668-2351 limits assumed): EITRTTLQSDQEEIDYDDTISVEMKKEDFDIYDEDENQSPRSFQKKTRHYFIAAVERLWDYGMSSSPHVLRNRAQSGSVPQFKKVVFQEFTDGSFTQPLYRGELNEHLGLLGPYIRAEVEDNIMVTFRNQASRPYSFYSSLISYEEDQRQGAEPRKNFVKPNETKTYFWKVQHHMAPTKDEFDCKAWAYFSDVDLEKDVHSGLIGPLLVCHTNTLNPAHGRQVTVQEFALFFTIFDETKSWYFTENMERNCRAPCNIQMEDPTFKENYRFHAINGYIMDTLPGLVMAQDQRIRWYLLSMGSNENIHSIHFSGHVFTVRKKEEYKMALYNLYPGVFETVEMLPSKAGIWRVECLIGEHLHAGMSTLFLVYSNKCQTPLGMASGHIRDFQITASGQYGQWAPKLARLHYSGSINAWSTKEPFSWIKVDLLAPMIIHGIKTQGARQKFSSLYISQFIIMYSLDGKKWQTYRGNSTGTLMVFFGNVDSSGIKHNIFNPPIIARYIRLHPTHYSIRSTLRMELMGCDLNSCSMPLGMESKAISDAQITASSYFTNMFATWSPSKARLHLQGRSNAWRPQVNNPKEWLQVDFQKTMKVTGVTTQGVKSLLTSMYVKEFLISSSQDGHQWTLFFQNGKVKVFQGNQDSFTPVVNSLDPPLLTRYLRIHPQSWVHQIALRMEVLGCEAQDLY
Sequence of Coagulation factor IX/VIII (P00740 47-191 limits assumed): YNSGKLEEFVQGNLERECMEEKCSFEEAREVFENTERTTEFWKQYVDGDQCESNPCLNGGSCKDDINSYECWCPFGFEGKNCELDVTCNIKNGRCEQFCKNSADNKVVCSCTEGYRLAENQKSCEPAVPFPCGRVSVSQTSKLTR
Sequence of Coagulation factor IX/VIII (P00740 227-461 limits assumed): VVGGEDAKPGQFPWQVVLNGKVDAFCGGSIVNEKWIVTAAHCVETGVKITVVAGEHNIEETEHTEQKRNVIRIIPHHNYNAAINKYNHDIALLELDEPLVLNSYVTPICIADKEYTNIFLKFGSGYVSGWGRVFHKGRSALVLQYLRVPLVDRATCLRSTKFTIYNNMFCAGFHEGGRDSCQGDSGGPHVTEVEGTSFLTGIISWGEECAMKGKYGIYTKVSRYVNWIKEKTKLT
Sequence of Coagulation factor X (Bos taurus) (P00743 41-180 limits assumed): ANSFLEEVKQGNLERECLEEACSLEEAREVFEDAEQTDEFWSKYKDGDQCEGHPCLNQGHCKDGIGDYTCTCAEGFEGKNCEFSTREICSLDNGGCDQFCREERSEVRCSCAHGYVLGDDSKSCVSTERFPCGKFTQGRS
Sequence of Coagulation factor X (Bos taurus) (P00743 234-492 limits assumed): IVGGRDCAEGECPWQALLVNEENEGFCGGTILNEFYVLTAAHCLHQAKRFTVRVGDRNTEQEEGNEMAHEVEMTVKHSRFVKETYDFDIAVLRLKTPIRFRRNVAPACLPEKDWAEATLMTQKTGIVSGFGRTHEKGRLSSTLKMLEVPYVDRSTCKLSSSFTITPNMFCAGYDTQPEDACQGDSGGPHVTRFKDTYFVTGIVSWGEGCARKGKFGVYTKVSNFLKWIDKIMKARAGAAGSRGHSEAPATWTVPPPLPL

`CC(=O)N[C@H]1[C@H](O[C@@H]([C@H](O[C@@H]2O[C@@H](C)[C@@H](OS(=O)(=O)[O-])[C@@H](O)[C@@H]2OS(=O)(=O)[O-])[C@@H](O)CO)[C@H](O)C(=O)[O-])O[C@H](COS(=O)(=O)[O-])[C@H](OS(=O)(=O)[O-])[C@@H]1O[C@@H]1OC(C(=O)[O-])=C[C@H](O[C@@H]2O[C@@H](C)[C@@H](OS(=O)(=O)[O-])[C@@H](O)[C@@H]2OS(=O)(=O)[O-])[C@H]1O.[Na+].[Na+].[Na+].[Na+].[Na+].[Na+].[Na+].[Na+]`: the 2aPTT with Plasma [1] worked out at 106.9 µg/mL. Moreover, the 2PT in the test with Plasma [2] is greater than 128 µg/mL. Further, in the test on Plasma [3], the 2TT is greater than 128 µg/mL. Further, 1150 nM corresponded to half-maximal inhibition in test [4] (IC50). The inhibition in test [5] and in test [6] was less than 10% each time.
On to `CC(=O)N[C@H]1[C@H](O[C@@H]([C@H](O[C@@H]2O[C@@H](C)[C@@H](OS(=O)(=O)[O-])[C@@H](O)[C@@H]2OS(=O)(=O)[O-])[C@@H](O)CO)[C@H](O)C(=O)[O-])O[C@H](COS(=O)(=O)[O-])[C@H](OS(=O)(=O)[O-])[C@@H]1O[C@@H]1O[C@H](C(=O)[O-])[C@@H](O[C@@H]2O[C@H](COS(=O)(=O)[O-])[C@H](OS(=O)(=O)[O-])[C@H](O[C@@H]3OC(C(=O)[O-])=C[C@H](O[C@@H]4O[C@@H](C)[C@@H](OS(=O)(=O)[O-])[C@@H](O)[C@@H]4OS(=O)(=O)[O-])[C@H]3O)[C@H]2NC(C)=O)[C@H](O[C@@H]2O[C@@H](C)[C@@H](OS(=O)(=O)[O-])[C@@H](O)[C@@H]2OS(=O)(=O)[O-])[C@H]1O.[Na+].[Na+].[Na+].[Na+].[Na+].[Na+].[Na+].[Na+].[Na+].[Na+].[Na+].[Na+].[Na+]`, for which the 2aPTT in the test on Plasma [1] worked out at 14.43 µg/mL. Besides, the 2PT with Plasma [2] is greater than 128 µg/mL. Besides, the 2TT in the test on Plasma [3] is greater than 128 µg/mL. For the same compound, the IC50 in test [4] is 98.7 nM. Further, the inhibition in test [5] and in test [6] was less than 10% each time.
Consider `CC(=O)N[C@@H](CO)[C@@H](O[C@@H]1OC(C(=O)[O-])=C[C@H](O[C@@H]2O[C@@H](C)[C@@H](OS(=O)(=O)[O-])[C@@H](O)[C@@H]2OS(=O)(=O)[O-])[C@H]1O)[C@@H](OS(=O)(=O)[O-])[C@H](O)COS(=O)(=O)[O-].[Na+].[Na+].[Na+].[Na+].[Na+]`, for which the 2aPTT in the test with Plasma [1] is greater than 128 µg/mL. In addition, the 2PT in the test with Plasma [2] was greater than 128 µg/mL. Moreover, in the test on Plasma [3], the 2TT is greater than 128 µg/mL. Moreover, in test [4], 2420 nM corresponded to half-maximal inhibition (IC50). The inhibition in test [5] and in test [6] was less than 10% each time.
